In US9108926B2, “Disubstituted 5-fluoro-pyrimidines” (Bayer Intellectual Property GmbH, priority 2011, dated 2015):
Where two headings read alike, the source gives them in different places.

Tests used:
CDK9/CycT1 [1] = molecular target: T1, CDK9/CycT1 (Homo sapiens, UniProt P50750); assay: CDK9/CycT1 kinase assay (TR-FRET, Method 1a)
Description: CDK9/CycT1-inhibitory activity of compounds of the present invention was quantified employing the CDK9/CycT1 TR-FRET assay as described in the following paragraphs:
Recombinant full-length His-tagged human CDK9 and CycT1, expressed in insect cells and purified by Ni-NTA affinity chromatography, were purchased from Invitrogen (Cat. No PV4131). As substrate for the kinase reaction biotinylated peptide biotin-Ttds-[sequence] (C-terminus in amid form) was used which can be purchased e.g. form the company JERINI Peptide Technologies (Berlin, Germany).
For the assay 50 nl of a 100 fold concentrated solution of the test compound in DMSO was pipetted into a black low volume 384 well microtiter plate (Greiner Bio-One, Frickenhausen, Germany), 2 μl of a solution of CDK9/CycT1 in aqueous assay buffer [50 mM Tris/HCl pH 8.0, 10 mM MgCl2, 1.0 mM dithiothreitol, 0.1 mM sodium ortho-vanadate, 0.01% (v/v) Nonidet-P40 (Sigma)] were added and the mixture was incubated for 15 min at 22° C. to allow pre-binding of the test compounds to the enzyme before the start of the kinase reaction. Then the kinase reaction was started by the addition of 3 μl of a solution of adenosine-tri-phosphate (ATP, 16.7 μM=>final conc. in the 5 μl assay volume is 10 μM) and substrate (1.67 μM=>final conc. in the 5 μl assay volume is 1 μM) in assay buffer and the resulting mixture was incubated for a reaction time of 25 min at 22° C. The concentration of CDK9/CycT1 was adjusted depending of the activity of the enzyme lot and was chosen appropriate to have the assay in the linear range, typical concentrations were in the range of 1 μg/mL. The reaction was stopped by the addition of 5 μl of a solution of TR-FRET detection reagents (0.2 μM streptavidine-XL665 [Cisbio Bioassays, Codolet, France] and 1 nM anti-RB(pSer807/pSer811)-antibody from BD Pharmingen [#558389] and 1.2 nM LANCE EU-W1024 labeled anti-mouse IgG antibody [Perkin-Elmer, product no. AD0077]) in an aqueous EDTA-solution (100 mM EDTA, 0.2% (w/v) bovine serum albumin in 100 mM HEPES/NaOH pH 7.0).
(§2) The resulting mixture was incubated 1 h at 22° C. to allow the formation of complex between the phosphorylated biotinylated peptide and the detection reagents. Subsequently the amount of phosphorylated substrate was evaluated by measurement of the resonance energy transfer from the Eu-chelate to the streptavidine-XL. Therefore, the fluorescence emissions at 620 nm and 665 nm after excitation at 350 nm was measured in a HTRF reader, e.g. a Rubystar (BMG Labtechnologies, Offenburg, Germany) or a Viewlux (Perkin-Elmer). The ratio of the emissions at 665 nm and at 622 nm was taken as the measure for the amount of phosphorylated substrate.

CDK9/CycT1 [2] = molecular target: T1, CDK9/CycT1
Description: CDK9/CycT1 High ATP Kinase Assay
CDK9/CycT1-inhibitory activity of compounds of the present invention at a high ATP concentration after preincubation of enzyme and test compounds was quantified employing the CDK9/CycT1 TR-FRET assay as described in the following paragraphs.
Recombinant full-length His-tagged human CDK9 and CycT1, expressed in insect cells and purified by Ni-NTA affinity chromatography, were purchase from Invitrogen (Cat. No PV4131). As substrate for the kinase reaction biotinylated peptide biotin-Ttds-[sequence]
For the assay 50 nl of a 100 fold concentrated solution of the test compound in DMSO was pipetted into a black low volume 384 well microtiter plate (Greiner Bio-One, Frickenhausen, Germany), 2 μl of a solution of CDK9/CycT1 in aqueous assay buffer [50 mM Tris/HCl pH 8.0, 10 mM MgCl2, 1.0 mM dithiothreitol, 0.1 mM sodium ortho-vanadate, 0.01% (v/v) Nonidet-P40 (Sigma)] were added and the mixture was incubated for 15 min at 22° C. to allow pre-binding of the test compounds to the enzyme before the start of the kinase reaction. Then the kinase reaction was started by the addition of 3 μl of a solution of adenosine-tri-phosphate (ATP, 3.3 mM=>final conc. in the 5 μl assay volume is 2 mM) and substrate (1.67 μM=>final conc. in the 5 μl assay volume is 1 μM) in assay buffer and the resulting mixture was incubated for a reaction time of 25 min at 22° C. The concentration of CDK9/CycT1 was adjusted depending of the activity of the enzyme lot and was chosen appropriate to have the assay in the linear range, typical concentrations were in the range of 0.5 μg/mL. The reaction was stopped by the addition of 5 μl of a solution of TR-FRET detection reagents (0.2 μM streptavidine-XL665 [Cisbio Bioassays, Codolet, France] and 1 nM anti-RB(pSer807/pSer811)-antibody from BD Pharmingen [#558389] and 1.2 nM LANCE EU-W1024 labeled anti-mouse IgG antibody [Perkin-Elmer, product no. AD0077]) in an aqueous EDTA-solution (100 mM EDTA, 0.2% (w/v) bovine serum albumin in 100 mM HEPES/NaOH pH 7.0).
as §2

B16F10 cells = assay: Proliferation assay, B16F10; assay type: cell-based; conditions: Mus musculus, B16-F10, 96 h, read-out: Inhibition of B16F10 cell proliferation IC50
Description: (§1) After 24 hours, the cells of one plate (zero-point plate) were stained with crystal violet (see below), while the medium of the other plates was replaced by fresh culture medium (200 μl), to which the test substances were added in various concentrations (0 μM, as well as in the range of 0.001-10 μM; the final concentration of the solvent dimethyl sulfoxide was 0.5%). The cells were incubated for 4 days in the presence of test substances. Cell proliferation was determined by staining the cells with crystal violet: the cells were fixed by adding 20 μl/measuring point of an 11% glutaric aldehyde solution for 15 minutes at room temperature. After three washing cycles of the fixed cells with water, the plates were dried at room temperature. The cells were stained by adding 100 μl/measuring point of a 0.1% crystal violet solution (pH 3.0). After three washing cycles of the stained cells with water, the plates were dried at room temperature. The dye was dissolved by adding 100 μl/measuring point of a 10% acetic acid solution. […] The change of cell number, in percent, was calculated by normalization of the measured values to the extinction values of the zero-point plate (=0%) and the extinction of the untreated (0 μm) cells (=100%).

Caco-2 cells = assay: Proliferation assay, Caco-2; assay type: cell-based; conditions: Homo sapiens, read-out: Inhibition of Caco-2 cell proliferation IC50
Description: as §1

HeLa-MaTu-ADR cells = assay: Proliferation assay, HeLa-MaTu-ADR; assay type: cell-based; conditions: Homo sapiens, 96 h, read-out: Inhibition of HeLa-MaTu-ADR cell proliferation IC50
Description: as §1

DU145 cells = assay: Proliferation assay, DU145; assay type: cell-based; conditions: Homo sapiens, DU-145, 96 h, read-out: Inhibition of DU145 cell proliferation IC50
Description: as §1

NCI-H460 cells = assay: Proliferation assay, NCI-H460; assay type: cell-based; conditions: Homo sapiens, read-out: Inhibition of NCI-H460 cell proliferation IC50
Description: as §1

CDK2/CycE = CDK2/CycE (Homo sapiens, UniProt P24941); assay: CDK2/CycE kinase assay (TR-FRET, Method 2)
Description: CDK2/CycE-inhibitory activity of compounds of the present invention was quantified employing the CDK2/CycE TR-FRET assay as described in the following paragraphs:
Recombinant fusion proteins of GST and human CDK2 and of GST and human CycE, expressed in insect cells (Sf9) and purified by Glutathion-Sepharose affinity chromatography, were purchased from ProQinase GmbH (Freiburg, Germany). As substrate for the kinase reaction biotinylated peptide biotin-Ttds-[sequence] (C-terminus in amid form) was used which can be purchased e.g. form the company JERINI Peptide Technologies (Berlin, Germany).
For the assay 50 nl of a 100 fold concentrated solution of the test compound in DMSO was pipetted into a black low volume 384 well microtiter plate (Greiner Bio-One, Frickenhausen, Germany), 2 μl of a solution of CDK2/CycE in aqueous assay buffer [50 mM Tris/HCl pH 8.0, 10 mM MgCl2, 1.0 mM dithiothreitol, 0.1 mM sodium ortho-vanadate, 0.01% (v/v) Nonidet-P40 (Sigma)] were added and the mixture was incubated for 15 min at 22° C. to allow pre-binding of the test compounds to the enzyme before the start of the kinase reaction. Then the kinase reaction was started by the addition of 3 μl of a solution of adenosine-tri-phosphate (ATP, 16.7 μM=>final conc. in the 5 μl assay volume is 10 μM) and substrate (1.25 μM=>final conc. in the 5 μl assay volume is 0.75 μM) in assay buffer and the resulting mixture was incubated for a reaction time of 25 min at 22° C. The concentration of CDK2/CycE was adjusted depending of the activity of the enzyme lot and was chosen appropriate to have the assay in the linear range, typical concentrations were in the range of 130 ng/mL. The reaction was stopped by the addition of 5 μl of a solution of TR-FRET detection reagents (0.2 μM streptavidine-XL665 [Cisbio Bioassays, Codolet, France] and 1 nM anti-RB(pSer807/pSer811)-antibody from BD Pharmingen [#558389] and 1.2 nM LANCE EU-W1024 labeled anti-mouse IgG antibody [Perkin-Elmer, product no. AD0077]) in an aqueous EDTA-solution (100 mM EDTA, 0.2% (w/v) bovine serum albumin in 100 mM HEPES/NaOH pH 7.0).
The resulting mixture was incubated 1 h at 22° C. to allow the formation of complex between the phosphorylated biotinylated peptide and the detection reagents. Subsequently the amount of phosphorylated substrate was evaluated by measurement of the resonance energy transfer from the Eu-chelate to the streptavidine-XL. Therefore, the fluorescence emissions at 620 nm and 665 nm after excitation at 350 nm was measured in a TR-FRET reader, e.g. a Rubystar (BMG Labtechnologies, Offenburg, Germany) or a Viewlux (Perkin-Elmer). The ratio of the emissions at 665 nm and at 622 nm was taken as the measure for the amount of phosphorylated substrate.

HeLa cells = assay: Proliferation assay, HeLa; assay type: cell-based; conditions: Homo sapiens, 96 h, read-out: Inhibition of HeLa cell proliferation IC50
Description: as §1

Caco-2 permeation assay = assay type: in vitro ADME; conditions: human, pH 7.2, Caco-2, test compound 2 μM
Description: 4. Caco-2 Permeation Assay:
Caco-2 cells (purchased from DSMZ Braunschweig, Germany) were seeded at a density of 4.5×10^4 cells per well on 24 well insert plates, 0.4 μm pore size, and grown for 15 days in DMEM medium supplemented with 10% fetal bovine serum, 1% GlutaMAX (100×, GIBCO), 100 U/mL penicillin, 100 μg/mL streptomycin (GIBCO) and 1% non essential amino acids (100×). Cells were maintained at 37° C. in a humified 5% CO2 atmosphere. Medium was changed every 2-3 day. Before running the permeation assay, the culture medium was replaced by a FCS-free hepes-carbonate transport buffer (pH 7.2). For assessment of monolayer integrity the transepithelial electrical resistance (TEER) was measured. Test compounds were predissolved in DMSO and added either to the apical or basolateral compartment in final concentration of 2 μM in transport buffer. Before and after 2 h incubation at 37° C. samples were taken from both compartments. Analysis of compound content was done after precipitation with methanol by LC/MS/MS analysis. Permeability (Papp) was calculated in the apical to basolateral (A→B) and basolateral to apical (B→A) directions. […] The efflux ratio basolateral (B) to apical (A) was calculated by dividing the Papp B−A by the Papp A−B. In addition the compound recovery was calculated. The following reference compounds were used for the classification of the permeability class: Antipyrine, Pyrazosin, Verapamil, Fluvastatin, Cimetidine, Ranitidine, Atenolol, Sulfasalazine.

[3] = 96 h, Caco-2, 4 days, crystal violet
[4] = HeLa-MaTu-ADR, 4 days, crystal violet
[5] = 96 h, NCI-H460, 4 days, crystal violet

T1 sequence (P50750 whole entry): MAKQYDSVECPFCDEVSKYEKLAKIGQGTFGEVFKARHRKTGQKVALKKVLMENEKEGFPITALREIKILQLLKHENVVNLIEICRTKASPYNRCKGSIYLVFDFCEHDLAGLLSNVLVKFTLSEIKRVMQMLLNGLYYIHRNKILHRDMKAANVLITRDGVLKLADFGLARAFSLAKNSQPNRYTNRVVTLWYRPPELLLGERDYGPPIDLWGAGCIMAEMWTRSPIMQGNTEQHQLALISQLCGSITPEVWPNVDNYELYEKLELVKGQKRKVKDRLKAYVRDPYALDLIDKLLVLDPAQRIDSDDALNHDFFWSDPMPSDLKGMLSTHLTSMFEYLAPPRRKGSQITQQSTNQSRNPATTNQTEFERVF
T1 sequence (O60563 whole entry partner): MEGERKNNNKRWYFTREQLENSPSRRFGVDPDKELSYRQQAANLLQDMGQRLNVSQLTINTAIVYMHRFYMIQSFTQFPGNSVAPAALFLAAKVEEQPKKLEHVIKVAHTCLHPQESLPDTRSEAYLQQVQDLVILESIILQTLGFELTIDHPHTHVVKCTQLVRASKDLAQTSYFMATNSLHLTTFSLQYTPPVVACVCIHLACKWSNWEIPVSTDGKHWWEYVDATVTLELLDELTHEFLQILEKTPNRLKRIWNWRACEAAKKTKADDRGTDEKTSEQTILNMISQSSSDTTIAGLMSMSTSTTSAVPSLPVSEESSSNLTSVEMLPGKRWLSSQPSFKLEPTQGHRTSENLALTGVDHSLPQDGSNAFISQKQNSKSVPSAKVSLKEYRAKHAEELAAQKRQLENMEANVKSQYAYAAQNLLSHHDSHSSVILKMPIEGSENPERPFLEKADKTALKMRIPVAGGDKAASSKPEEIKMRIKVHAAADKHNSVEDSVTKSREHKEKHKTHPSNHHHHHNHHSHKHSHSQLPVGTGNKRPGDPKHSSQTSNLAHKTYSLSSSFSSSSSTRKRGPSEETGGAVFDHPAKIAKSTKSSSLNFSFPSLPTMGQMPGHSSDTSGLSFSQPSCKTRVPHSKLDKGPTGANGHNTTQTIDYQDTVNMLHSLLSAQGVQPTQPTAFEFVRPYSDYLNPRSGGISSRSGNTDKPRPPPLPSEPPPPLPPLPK

Row | Compound | IC50 (CDK9/CycT1 [1]) [nM] | IC50 (CDK9/CycT1 [2]) [nM] | IC50 (B16F10 cells; B16F10, 4 days, crystal violet) [nM] | IC50 (Caco-2 cells; [3]) [nM] | IC50 (HeLa-MaTu-ADR cells; [4]) [nM] | IC50 (DU145 cells; DU145, 4 days, crystal violet) [nM] | IC50 (NCI-H460 cells; [5]) [nM] | IC50 (CDK2/CycE) [nM] | IC50 (HeLa cells; 4 days, crystal violet) [nM] | further results
1 | COCCS(=O)(=O)Cc1cccc(Nc2ncc(F)c(-c3ccc(F)cc3OCc3ccccc3)n2)c1 [Example 3, 4-[2-(Benzyloxy)-4-fluorophenyl]-5-fluoro-N-(3-{[(2-methoxyethyl)sulfonyl]methyl}phenyl)pyrimidin-2-amine] | 10 | 10 | 1200 | 1100 | 1000 | 1300 | 1200 | 1200 | 1200 | 
2 | CC(C)(C)S(=O)(=O)Cc1cccc(Nc2ncc(F)c(-c3ccc(F)cc3OCc3ccccc3)n2)c1 [Example 4, 4-[2-(Benzyloxy)-4-fluorophenyl]-N-{3-[(tert-butylsulfonyl)methyl]phenyl}-5-fluoropyrimidin-2-amine] | 29 | 80 |  |  |  |  |  | 3100 |  | 
3 | COc1cc(F)ccc1-c1nc(Nc2cccc(CS(=O)(=O)C(C)C)c2)ncc1F [Example 7, 5-Fluoro-4-(4-fluoro-2-methoxyphenyl)-N-{3-[(propan-2-ylsulfonyl)methyl]phenyl}pyrimidin-2-amine] |  |  |  |  |  |  |  | 510 | 1100 | 
4 | O=S(=O)(Cc1cccc(Nc2ncc(F)c(-c3cccc4c3OCCC4)n2)c1)C1CC1 [Example 10, N-{3-[(Cyclopropylsulfonyl)methyl]phenyl}-4-(3,4-dihydro-2H-chromen-8-yl)-5-fluoropyrimidin-2-amine] |  |  |  |  |  |  |  | 210 | 1100 | 
5 | CS(=O)(=O)Cc1cccc(Nc2ncc(F)c(-c3ccc(F)cc3OCc3ccccc3)n2)c1 [Example 2, 4-[2-(Benzyloxy)-4-fluorophenyl]-5-fluoro-N-{3-[(methylsulfonyl)methyl]phenyl}pyrimidin-2-amine] | 8 | 8 | 820 | 490 | 300 | 410 | 370 | 840 | 350 | 
6 | COc1cc(F)ccc1-c1nc(Nc2cccc(CS(=O)(=O)Cc3ccccc3)c2)ncc1F [Example 15, N-{3-[(Benzylsulfonyl)methyl]phenyl}-5-fluoro-4-(4-fluoro-2-methoxyphenyl)-pyrimidin-2-amine] | 10 | 83 |  |  |  |  |  | 1100 | 1800 | 
7 | CC(C)S(=O)(=O)Cc1cccc(Nc2ncc(F)c(-c3ccc(F)cc3OCc3ccccc3)n2)c1 [Example 5, 4-[2-(Benzyloxy)-4-fluorophenyl]-5-fluoro-N-{3-[(propan-2-ylsulfonyl)methyl]phenyl}pyrimidin-2-amine] | 14 | 20 |  |  |  |  |  | 1600 |  | 
8 | COc1cc(F)ccc1-c1nc(Nc2cccc(CS(=O)(=O)CCO)c2)ncc1F [Example 8, 2-[(3-{[5-Fluoro-4-(4-fluoro-2-methoxyphenyl)pyrimidin-2-yl]amino}benzyl)sulfonyl]ethanol] | 9 | 103 | 950 | 710 | 380 | 640 | 710 | 310 | 1000 | 
9 | CS(=O)(=O)Cc1cccc(Nc2ncc(F)c(-c3ccc(F)cc3OCc3cccnc3)n2)c1 [Example 16, 5-Fluoro-4-[4-fluoro-2-(pyridin-3-ylmethoxy)phenyl]-N-{3-[(methylsulfonyl)methyl]phenyl}pyrimidin-2-amine] | 8 | 19 | 410 | 440 | 350 | 300 | 320 | 820 | 380 | 
10 | CS(=O)(=O)Cc1cccc(Nc2ncc(F)c(-c3cccc4c3OCCC4)n2)c1 [Example 9, 4-(3,4-Dihydro-2H-chromen-8-yl)-5-fluoro-N-{3-[(methylsulfonyl)methyl]phenyl}pyrimidin-2-amine] |  |  | 340 | 270 | 200 | 320 | 340 | 300 | 360 | 
11 | CS(=O)(=O)Cc1cccc(Nc2ncc(F)c(-c3cccc4c3OCCO4)n2)c1 [Example 13, 4-(2,3-Dihydro-1,4-benzodioxin-5-yl)-5-fluoro-N-{3-[(methylsulfonyl)methyl]phenyl}pyrimidin-2-amine] | 6 | 5 |  |  |  |  |  | 120 |  | IC50 (B16F10 cells): 510 nM; IC50 (Caco-2 cells; Caco-2, 96 h): 220 nM; IC50 (HeLa-MaTu-ADR cells): 190 nM; IC50 (DU145 cells): 310 nM; IC50 (NCI-H460 cells; NCI-H460, 96 h): 340 nM; IC50 (HeLa cells): 210 nM
12 | CS(=O)(=O)Cc1cc(F)cc(Nc2ncc(F)c(-c3ccc(F)cc3OCc3ccccc3)n2)c1 [Example 11, 4-[2-(Benzyloxy)-4-fluorophenyl]-5-fluoro-N-{3-fluoro-5-[(methylsulfonyl)methyl]phenyl}pyrimidin-2-amine] |  |  |  |  |  |  |  | 1100 | 1000 | 
13 | COc1cc(F)ccc1-c1nc(Nc2cccc(CS(C)(=O)=O)c2)ncc1F [Example 1, 5-Fluoro-4-(4-fluoro-2-methoxyphenyl)-N-{3 [(methylsulfonyl)methyl]phenyl}pyrimidin-2-amine] |  |  | 310 | 260 | 170 | 290 | 330 | 300 | 290 | Papp A→B at 2 h, 2 μM (Caco-2 permeation assay; apical to basolateral, read-out: Papp A-B (Mari)): 20.6 ×10⁻⁶ cm/s; Papp B→A at 2 h, 2 μM (Caco-2 permeation assay; basolateral to apical, read-out: Papp B-A (Mari)): 8.5 ×10⁻⁶ cm/s
14 | COc1cc(F)ccc1-c1nc(Nc2cccc(CS(=O)(=O)C3CC3)c2)ncc1F [Example 14, N-{3-[(Cyclopropylsulfonyl)methyl]phenyl}-5-fluoro-4-(4-fluoro-2-methoxyphenyl)pyrimidin-2-amine] | 8 | 40 |  |  |  |  |  | 780 | 670 | 
15 | O=S(=O)(Cc1cccc(Nc2ncc(F)c(-c3ccc(F)cc3OCc3ccccc3)n2)c1)C1CCCCC1 [Example 6, 4-[2-(Benzyloxy)-4-fluorophenyl]-N-{3-[(cyclohexylsulfonyl)methyl]phenyl}-5-fluoropyrimidin-2-amine] | 51 | 98 |  |  |  |  |  | ≥ 20000 |  | 
